This is an account of results in US20250064762A1, “A SUBSTITUTED AROMATIC DICARBONIC ACID AMIDE AS AN INHIBITOR OF THE FERROPTOSIS SUPPRESSOR PROTEIN-1 (FSP1)” (JULIUS-MAXIMILIANS-UNIVERSITÄT WÜRZBURG, priority 2021, published 2025).

SMILES strings stand for the structures.

In series [1] the test system is HT1080 cells. Put plainly: Western blot of ferroptosis regulators GPX4, ACSL4 and FSP1. Type of series: cell-based, human. The note with it: 100 μM CPBA; 16 h; liproxstatin-1 100 nM. How it is done: Cultured cells were lysed in 50 mM Tris, pH 7.5; 150 mM NaCl; 1% (v/v) Triton X-100; 0.5% (w/v) sodium deoxycholate; 0.1% (w/v) sodium dodecyl sulfate; 5 μg/mL aprotinin, 1 μg/mL leupeptin, 1 μg/mL pepstatin, and 1 mM 4-(2-aminoethyl)benzenesulfonyl fluoride (Pefabloc). Protein concentrations were determined using the Micro BCA Protein Assay Kit (Thermo Fisher Scientific). Proteins were separated by SDS-PAGE, transferred to nitrocellulose membranes by semidry-blotting, and incubated with the indicated antibodies.
Western blots were quantified using the public domain NIH Image program (developed at the U.S. National Institutes of Health, http://rsb.info.nih.gov/nih-image/). Statistical analysis was performed using GraphPad Prism version 7.05 or 9.1.2 (GraphPad, San Diego, CA, USA).
HT1080 cells were cultured in the presence of liproxstatin-1 (100 nM), and incubated for 16 h with the solvent control DMSO (0.1%), RSL3 (1 μM), FIN56 (10 μM), or BSO (100 μM) in the presence of either 0.1% DMSO (−) or 100 μM CPBA (+). Cells were lysed and probed with the indicated antibodies as described above. […] Quantification of relative intensity of Western Blot bands was performed as described above (see FIG. 7).
On the technique in general: A western blot detects proteins with antibodies after separation by electrophoresis.

The test system of series [2] is HT1080 cells. Put plainly: Lipid peroxidation, BODIPY 581/591-C11 probe, flow cytometry. Type of series: cell-based, human. The note with it: 100 μM CPBA; 16 h; subeffective RSL3, FIN56 or BSO. How it is done:
Approximately 10,000 HT1080 cells were seeded per well of a 48-well dish. The next day, cells were treated for 16 h with DMSO (0.1%, solvent control), CPBA (100 μM), or liproxstatin-1 (100 nM) in the absence or presence of subeffective concentrations of RSL3 (50 nM), FIN56 (50 nM), or BSO (1 μM). Cells were incubated with the BODIPY 581/591-C11 probe (1 μM) for 30 min at 37° C. in a tissue culture incubator, harvested by trypsinization, and resuspended in 500 μL phosphate-buffered saline supplemented with 0.5 mg/mL soybean trypsin inhibitor (Sigma Aldrich). Cells were analyzed using the 488-nm laser of a flow cytometer (FACSCalibur, BD Biosciences) for excitation. […] At least 5,000 cells were analyzed per sample. […]
Effects of CPBA on cellular lipid peroxidation were investigated using a BODIPY 581/591-C11 probe as described above. […] Oxidation of the polyunsaturated butadienyl portion of the dye results in a shift of the fluorescence emission peak from about 595 nm (nonoxidized form) to about 520 nm (oxidized form) (see FIG. 8).
HT1080 cells were incubated for 16 h with DMSO (0.1%, solvent control), CPBA (100 μM), or liproxstatin-1 (lip-1, 100 nM) in the absence or presence of subeffective concentrations of RSL3 (50 nM), FIN56 (50 nM), or BSO (1 μM). Fluorescence intensity was quantified by flow cytometry using a 530 nm band-pass filter as described above and quantified. […]
(In general: Flow cytometry measures light scatter and fluorescence of single cells or particles in a stream.)

The next series relates to IHH, AML12, RAW264.7. Put plainly: FIN56 toxicity in non-transformed hepatocytes and a monocyte/macrophage cell line. Type of series: cell-based. Particulars: CPBA 100 μM, iFSP1 10 μM; 16 h. How it is done: Cell culture media and supplements were from Thermo Fisher Scientific, unless specified otherwise. Mouse embryonic fibroblasts (MEFs) were generated from Pgp-wildtype (Pgp^fl/fl) or heterozygous Pgp-inactivated mouse embryos (Pgp^fl/D34N) as described (Segerer et al., 2016). […]
Cells were seeded onto 96-well plates (5,000 cells per well), and treated with serial dilutions of ferroptosis-inducing compounds (erastin, BSO, RSL3, FIN56) or cytotoxic drugs (staurosporine, nocodazole, tunicamycin, paclitaxel, etoposide, menadione, rotenone, FCCP, carboplatin) in the absence or presence of CPBA or iFSP1 (100 μM or 10 μM, respectively; unless stated otherwise) or the DMSO solvent control. Ferroptotic cell death was evaluated by incubating in the absence or presence of liproxstatin-1 (100 nM), ferrostatin-1 (200 nM), or deferoxamine (100 μM). Cell viability was assessed after 16 h using AquaBluer as an indicator of viable cells according to the manufacturer's recommendations (MultiTarget Pharmaceuticals, LLC). Fluorescence (excitation, 540 nm; emission, 590 nm) was analyzed on a Clariostar microplater reader. […]

On to `O=C(Nc1ccccc1C(=O)O)c1ccc(Oc2ccc(C(=O)Nc3ccccc3C(=O)O)cc2)cc1` [CPBA, 2-[[4-[4-[(2-carboxyphenyl)carbamoyl]phenoxy]benzoyl]amino]-benzoic acid], for which the “expression of GPX4, ACSL4 and FSP1” value with HT1080 cells [1] is “not affected by the presence of CPBA”. Besides, the “amount of lipid peroxidation” value in the series with HT1080 cells [2] is “the amount of lipid peroxidation in the cells is increased”.

As for `Cc1ccc(-c2c(C#N)c(N)n3c(nc4ccccc43)c2C#N)cc1` [iFSP1, reference compound], the “toxicity of FIN56 in non-transformed cell lines on addition of the compound” value with IHH, AML12, RAW264.7 is listed as “not markedly increased by the addition of CPBA or iFSP1”.
